According to US6541256B1, “Growth medium for human corneal endothelial cells” (The Schepens Eye Research Institute, Inc., priority 1999, dated 2003):

Tested on: endothelial "ionic pump"
Assay: pump function tested by pachymetry of transplanted corneas after exposure to ouabain
Parameters: species or system human
Settings: 200 μM ouabain
Procedure: Corneas from donors (52-80 years old) were obtained from an eye bank. Descemet's membrane was stripped and endothelial cells were removed by mild EDTA treatment. Cells, cultured in the preferred formulation of the culture medium, were identified by RT-PCR of collagen type VIII and keratin-12 and by morphology. Cells (2.5×10^5) were seeded onto denuded Descemet's membrane from a second donor cornea. The cornea was incubated in culture for up to 1 month. Cell-cell contact of transplanted cells was evaluated by ZO-1 staining. Morphology and ultrastructure were examined by transmission electron microscopy. Pump function was tested by pachymetry after exposure to 200 μM ouabain. Cultured cells were identified as corneal endothelium by characteristic mRNA expression and morphology. The success rate of primary cultures, obtained from corneas stored <5 days after death, was about 99%. […] With time, cell-substrate adhesion, cell-cell contact, and lateral interdigitation increased, and the cells rearranged to form a monolayer. When the endothelium is functional, it draws water out of the corneal stroma, resulting in a thin cornea. Ouabain, a cardiac glycoside, inhibits the function of the endothelial “ionic pump”, causing an increase in corneal thickness. […] Referring to FIG. 4, pachymetry of transplanted corneas after ouabain treatment is graphically depicted. […]

SMILES: C[C@@H]1O[C@@H](O[C@H]2C[C@@H](O)[C@]3(CO)[C@H]4[C@H](O)C[C@]5(C)[C@@H](C6=CC(=O)OC6)CC[C@]5(O)[C@@H]4CC[C@]3(O)C2)[C@H](O)[C@H](O)[C@H]1O [ouabain]
- period over which corneal thickness increased to maximum (transplanted corneas after 14 days in organ culture): 2 to 3 h
- corneal thickness measured by pachymetry (FIG. 4) (transplants maintained 14 days in organ culture, 5 corneas): increased to a level equal to that of corneas denuded of endothelium
